The values below come from ChEMBL document CHEMBL5696442, “Discovery of type II inhibitors of TGFβ-activated kinase 1 (TAK1) and mitogen-activated protein kinase kinase kinase kinase 2 (MAP4K2)” (J Med Chem, 2015).

Active and inactive are the calls of the source. No cut-off for these calls is given here.

Experiment [1] has as its target T1, Serine/threonine-protein kinase D1 (Homo sapiens) (UniProt Q15139).
T1 sequence (whole entry): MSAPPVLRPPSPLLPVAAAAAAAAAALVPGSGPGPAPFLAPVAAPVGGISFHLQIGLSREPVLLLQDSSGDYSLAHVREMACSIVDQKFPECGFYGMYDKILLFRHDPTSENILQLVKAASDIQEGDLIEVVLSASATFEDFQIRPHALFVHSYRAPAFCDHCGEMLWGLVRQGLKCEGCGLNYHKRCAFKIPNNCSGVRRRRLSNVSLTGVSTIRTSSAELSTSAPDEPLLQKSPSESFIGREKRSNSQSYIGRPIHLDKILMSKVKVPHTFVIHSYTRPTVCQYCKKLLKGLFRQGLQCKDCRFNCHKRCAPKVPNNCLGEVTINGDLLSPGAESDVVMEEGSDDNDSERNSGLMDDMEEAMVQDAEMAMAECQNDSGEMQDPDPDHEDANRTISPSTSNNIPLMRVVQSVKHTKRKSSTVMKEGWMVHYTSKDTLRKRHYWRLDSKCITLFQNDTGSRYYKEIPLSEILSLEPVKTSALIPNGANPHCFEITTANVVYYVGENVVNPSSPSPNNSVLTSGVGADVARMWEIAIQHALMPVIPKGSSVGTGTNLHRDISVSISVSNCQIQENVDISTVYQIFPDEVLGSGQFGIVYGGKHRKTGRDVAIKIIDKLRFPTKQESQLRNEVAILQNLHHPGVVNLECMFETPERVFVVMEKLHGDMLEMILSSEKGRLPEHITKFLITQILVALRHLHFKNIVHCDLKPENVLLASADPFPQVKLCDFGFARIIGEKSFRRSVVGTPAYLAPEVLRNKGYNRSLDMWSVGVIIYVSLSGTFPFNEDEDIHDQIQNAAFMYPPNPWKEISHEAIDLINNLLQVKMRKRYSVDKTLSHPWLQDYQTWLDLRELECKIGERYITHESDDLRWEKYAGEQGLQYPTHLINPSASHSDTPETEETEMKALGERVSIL
Description: Inhibition of PKD1 Lys2 labeling site in human Huh-7 cells at 1 uM by KiNativ Profiling analysis relative to control. In kind it is cell-based.

Experiment [2] deals with T2, Ephrin type-B receptor 2 (Homo sapiens) (UniProt P29323).
T2 sequence (whole entry): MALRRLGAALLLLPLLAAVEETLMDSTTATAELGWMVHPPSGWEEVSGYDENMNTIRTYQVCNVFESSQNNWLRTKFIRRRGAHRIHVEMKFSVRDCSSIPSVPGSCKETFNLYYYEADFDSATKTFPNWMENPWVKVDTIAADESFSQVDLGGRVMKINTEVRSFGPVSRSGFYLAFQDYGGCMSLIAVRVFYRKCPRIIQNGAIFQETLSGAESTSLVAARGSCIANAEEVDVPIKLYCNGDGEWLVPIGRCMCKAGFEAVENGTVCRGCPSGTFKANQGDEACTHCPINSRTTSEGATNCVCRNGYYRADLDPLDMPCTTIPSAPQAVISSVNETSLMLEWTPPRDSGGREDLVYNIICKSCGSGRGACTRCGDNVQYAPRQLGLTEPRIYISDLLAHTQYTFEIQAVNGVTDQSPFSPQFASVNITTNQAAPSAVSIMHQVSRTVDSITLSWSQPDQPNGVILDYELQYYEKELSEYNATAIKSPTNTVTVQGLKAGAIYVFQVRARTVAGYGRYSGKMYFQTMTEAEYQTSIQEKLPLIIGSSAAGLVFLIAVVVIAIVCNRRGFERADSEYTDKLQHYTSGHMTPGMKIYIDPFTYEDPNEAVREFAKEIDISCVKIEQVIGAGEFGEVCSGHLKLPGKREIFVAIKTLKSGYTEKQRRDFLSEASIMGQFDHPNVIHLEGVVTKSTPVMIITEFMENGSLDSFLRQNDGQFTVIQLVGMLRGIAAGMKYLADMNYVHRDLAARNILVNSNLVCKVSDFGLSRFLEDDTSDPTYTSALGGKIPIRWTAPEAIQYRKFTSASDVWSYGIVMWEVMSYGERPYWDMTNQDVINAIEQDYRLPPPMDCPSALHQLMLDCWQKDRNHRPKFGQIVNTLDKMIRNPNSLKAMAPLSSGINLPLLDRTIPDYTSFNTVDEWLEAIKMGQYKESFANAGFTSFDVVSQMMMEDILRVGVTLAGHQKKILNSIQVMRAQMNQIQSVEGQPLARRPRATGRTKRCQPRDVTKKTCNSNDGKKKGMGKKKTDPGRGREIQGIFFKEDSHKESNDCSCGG
Description: Inhibition of EPHB2 (unknown origin) at 1 uM by Ambit Kinomescan binding assay relative to control.

Experiment [3] addresses Fibroblast growth factor receptor 3 (Homo sapiens) (UniProt P22607). Description: Inhibition of FGFR3 (unknown origin) at 1 uM by Ambit Kinomescan binding assay relative to control; values are per cent of control.
Experiment [4] deals with Phosphatidylinositol 4,5-bisphosphate 3-kinase catalytic subunit alpha isoform (Homo sapiens), P42336 [E545K]. Briefly: Inhibition of PIK3CA E545K mutant (unknown origin) at 10 uM by Ambit Kinomescan binding assay.
Experiment [5] has as its target Macrophage colony-stimulating factor 1 receptor (Homo sapiens) (UniProt P07333). Briefly: Inhibition of CSF1R (unknown origin) at 10 uM by Ambit Kinomescan binding assay relative to control.
The target in experiment [6] is Ribosomal protein S6 kinase alpha-1 (Homo sapiens) (UniProt Q15418). Briefly: Inhibition of RSK1 domain1 Lys1 labeling site in human A-375 cells at 0.5 uM by KiNativ Profiling analysis relative to control. The class given is cell-based.
Ribosomal protein S6 kinase alpha-1 (Homo sapiens), sequence (Q15418 whole entry, the tested form may be a part): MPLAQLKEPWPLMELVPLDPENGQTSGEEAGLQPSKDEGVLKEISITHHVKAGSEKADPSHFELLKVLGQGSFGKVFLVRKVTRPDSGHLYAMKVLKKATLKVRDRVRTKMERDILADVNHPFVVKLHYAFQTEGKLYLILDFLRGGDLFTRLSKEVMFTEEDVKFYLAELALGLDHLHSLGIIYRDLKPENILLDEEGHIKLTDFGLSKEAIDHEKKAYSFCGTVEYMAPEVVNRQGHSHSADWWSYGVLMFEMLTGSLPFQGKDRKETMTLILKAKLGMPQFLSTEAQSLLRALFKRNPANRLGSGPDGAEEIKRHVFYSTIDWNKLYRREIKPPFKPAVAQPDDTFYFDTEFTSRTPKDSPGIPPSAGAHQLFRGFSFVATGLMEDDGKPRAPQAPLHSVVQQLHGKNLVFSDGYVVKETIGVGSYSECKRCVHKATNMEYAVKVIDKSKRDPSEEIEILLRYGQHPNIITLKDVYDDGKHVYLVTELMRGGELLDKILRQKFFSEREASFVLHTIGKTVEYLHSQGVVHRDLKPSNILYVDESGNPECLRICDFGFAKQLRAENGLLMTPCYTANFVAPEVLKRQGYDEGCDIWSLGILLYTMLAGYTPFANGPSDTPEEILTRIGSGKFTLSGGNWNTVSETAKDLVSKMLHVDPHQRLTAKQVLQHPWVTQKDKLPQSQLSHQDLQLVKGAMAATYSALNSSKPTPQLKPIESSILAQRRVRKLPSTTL

Macrophage colony-stimulating factor 1 receptor (Homo sapiens), sequence (P07333 whole entry, the tested form may be a part): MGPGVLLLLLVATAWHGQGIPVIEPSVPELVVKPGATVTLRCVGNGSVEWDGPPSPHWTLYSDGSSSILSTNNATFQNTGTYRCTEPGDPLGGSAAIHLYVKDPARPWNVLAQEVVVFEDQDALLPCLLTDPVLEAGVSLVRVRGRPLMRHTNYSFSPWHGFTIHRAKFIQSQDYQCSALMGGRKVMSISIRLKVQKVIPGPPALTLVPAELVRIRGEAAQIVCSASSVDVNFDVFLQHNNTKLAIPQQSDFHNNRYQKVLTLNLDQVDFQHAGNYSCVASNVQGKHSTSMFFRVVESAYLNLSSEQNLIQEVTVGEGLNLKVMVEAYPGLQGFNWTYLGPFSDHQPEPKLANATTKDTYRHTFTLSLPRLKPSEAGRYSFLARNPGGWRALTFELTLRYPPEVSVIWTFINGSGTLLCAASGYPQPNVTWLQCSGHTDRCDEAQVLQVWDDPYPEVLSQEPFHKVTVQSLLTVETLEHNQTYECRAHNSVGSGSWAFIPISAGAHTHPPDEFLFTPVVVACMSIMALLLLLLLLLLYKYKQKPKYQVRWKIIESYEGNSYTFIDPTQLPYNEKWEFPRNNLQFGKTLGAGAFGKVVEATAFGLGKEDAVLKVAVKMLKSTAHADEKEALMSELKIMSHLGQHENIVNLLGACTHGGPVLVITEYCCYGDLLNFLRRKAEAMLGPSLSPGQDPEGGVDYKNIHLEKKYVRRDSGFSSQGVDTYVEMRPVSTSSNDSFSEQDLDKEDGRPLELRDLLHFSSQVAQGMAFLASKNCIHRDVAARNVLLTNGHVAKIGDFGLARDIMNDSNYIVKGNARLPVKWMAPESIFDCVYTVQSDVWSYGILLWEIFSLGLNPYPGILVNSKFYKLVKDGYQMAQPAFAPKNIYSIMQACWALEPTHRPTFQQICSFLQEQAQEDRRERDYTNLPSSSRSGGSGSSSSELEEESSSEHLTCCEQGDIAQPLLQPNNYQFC
Fibroblast growth factor receptor 3 (Homo sapiens), sequence (P22607 23-806 limits assumed): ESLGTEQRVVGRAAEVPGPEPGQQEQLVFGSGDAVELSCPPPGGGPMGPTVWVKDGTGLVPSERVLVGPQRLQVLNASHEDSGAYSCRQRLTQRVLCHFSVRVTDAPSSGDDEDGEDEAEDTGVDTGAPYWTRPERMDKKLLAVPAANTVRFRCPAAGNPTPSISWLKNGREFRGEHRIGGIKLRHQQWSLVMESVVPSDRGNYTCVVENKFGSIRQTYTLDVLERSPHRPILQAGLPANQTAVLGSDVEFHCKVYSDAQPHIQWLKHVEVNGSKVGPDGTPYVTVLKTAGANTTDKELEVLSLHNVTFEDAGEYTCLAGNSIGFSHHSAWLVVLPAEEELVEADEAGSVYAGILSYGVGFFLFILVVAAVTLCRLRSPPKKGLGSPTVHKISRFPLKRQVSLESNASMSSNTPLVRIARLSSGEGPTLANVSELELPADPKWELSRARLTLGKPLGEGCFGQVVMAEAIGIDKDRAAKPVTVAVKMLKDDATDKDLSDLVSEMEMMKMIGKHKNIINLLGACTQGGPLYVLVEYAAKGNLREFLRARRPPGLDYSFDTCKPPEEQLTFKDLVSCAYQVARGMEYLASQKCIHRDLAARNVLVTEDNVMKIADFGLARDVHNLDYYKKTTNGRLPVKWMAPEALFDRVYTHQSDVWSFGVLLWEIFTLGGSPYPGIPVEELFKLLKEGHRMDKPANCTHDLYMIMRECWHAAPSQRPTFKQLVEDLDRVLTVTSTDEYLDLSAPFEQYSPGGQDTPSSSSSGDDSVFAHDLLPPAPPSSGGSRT
Phosphatidylinositol 4,5-bisphosphate 3-kinase catalytic subunit alpha isoform (Homo sapiens), P42336 [E545K], sequence (P42336 whole entry E545K, canonical isoform): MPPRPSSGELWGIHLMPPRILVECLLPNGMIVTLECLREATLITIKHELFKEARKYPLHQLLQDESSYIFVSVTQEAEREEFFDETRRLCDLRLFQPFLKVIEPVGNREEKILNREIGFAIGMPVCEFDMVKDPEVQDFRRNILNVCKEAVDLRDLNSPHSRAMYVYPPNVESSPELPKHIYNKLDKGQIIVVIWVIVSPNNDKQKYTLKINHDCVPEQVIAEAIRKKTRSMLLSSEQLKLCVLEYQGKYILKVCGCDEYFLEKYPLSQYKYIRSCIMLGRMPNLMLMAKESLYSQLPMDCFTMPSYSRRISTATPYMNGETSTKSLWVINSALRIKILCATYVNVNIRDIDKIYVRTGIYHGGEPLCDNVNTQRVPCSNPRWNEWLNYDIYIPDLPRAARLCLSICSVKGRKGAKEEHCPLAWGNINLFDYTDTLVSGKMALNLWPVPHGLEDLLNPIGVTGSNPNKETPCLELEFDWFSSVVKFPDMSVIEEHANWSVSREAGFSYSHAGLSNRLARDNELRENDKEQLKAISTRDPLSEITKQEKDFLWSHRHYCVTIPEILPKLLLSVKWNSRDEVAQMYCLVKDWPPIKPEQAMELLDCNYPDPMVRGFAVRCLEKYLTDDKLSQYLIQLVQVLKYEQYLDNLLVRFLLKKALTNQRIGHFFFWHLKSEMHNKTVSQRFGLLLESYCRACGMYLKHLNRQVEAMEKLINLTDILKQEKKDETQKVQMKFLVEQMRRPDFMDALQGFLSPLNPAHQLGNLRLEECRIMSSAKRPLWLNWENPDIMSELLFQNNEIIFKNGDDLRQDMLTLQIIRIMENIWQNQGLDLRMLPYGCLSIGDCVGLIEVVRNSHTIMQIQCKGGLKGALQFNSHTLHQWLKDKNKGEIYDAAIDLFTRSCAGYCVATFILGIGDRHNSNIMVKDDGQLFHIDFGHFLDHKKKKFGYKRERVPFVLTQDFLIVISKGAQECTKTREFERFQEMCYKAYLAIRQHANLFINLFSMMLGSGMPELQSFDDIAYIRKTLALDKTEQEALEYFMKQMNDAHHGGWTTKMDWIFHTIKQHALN

With `CNc1cc(Oc2cc(C(=O)Nc3cc(N4CCN(C)CC4)cc(C(F)(F)F)c3)ccc2C)ncn1`, the inhibition in experiment [1] came to 9%.

On to `CCN1CCN(Cc2ccc(NC(=O)c3ccc(C)c(/C=C/c4cnc5[nH]ccc5c4OC)c3)cc2C(F)(F)F)CC1`, for which the inhibition in experiment [2] is 5.8%. The compound also gave a residual activity in experiment [3] of 13%.

Turning to `CCN1CCN(Cc2ccc(NC(=O)c3ccc(C)c(Oc4ccnc5[nH]ccc45)c3)cc2C(F)(F)F)CC1`, in experiment [4], the inhibition result is “inactive”. Besides, the inhibition was 0% in experiment [5] and -0.7% in experiment [6].

In general, inhibition refers to the relative decrease from the control value, in per cent. By residual activity is commonly meant the activity still measured, relative to the control. A low value points to a large loss of activity.
